The text below walks through data of article doi:10.1101/208439v1 (biorxiv, 2017).

In one assay the target is DNMT3b/3L (Homo sapiens, UniProt Q9UBC3). Description: biochemical.
A further assay has as its target T1, SMYD1 (Homo sapiens, UniProt Q8NB12).
T1 sequence (Q8NB12 1-490): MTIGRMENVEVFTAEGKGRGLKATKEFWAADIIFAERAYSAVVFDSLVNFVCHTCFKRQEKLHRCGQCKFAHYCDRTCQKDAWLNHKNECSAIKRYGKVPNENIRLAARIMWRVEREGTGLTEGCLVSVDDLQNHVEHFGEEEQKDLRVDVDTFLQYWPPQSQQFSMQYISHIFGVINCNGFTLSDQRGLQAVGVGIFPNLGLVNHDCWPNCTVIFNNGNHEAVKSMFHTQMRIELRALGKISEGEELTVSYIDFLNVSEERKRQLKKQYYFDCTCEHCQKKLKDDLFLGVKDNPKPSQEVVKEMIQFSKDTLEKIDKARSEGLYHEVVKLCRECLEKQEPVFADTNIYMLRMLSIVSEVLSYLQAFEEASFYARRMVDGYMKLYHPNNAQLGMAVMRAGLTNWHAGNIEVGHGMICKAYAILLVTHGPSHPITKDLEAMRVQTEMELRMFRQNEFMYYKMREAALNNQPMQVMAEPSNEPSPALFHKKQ
The assay can be described thus: biochemical.

Assay [1] addresses T2, NSD2 SET domain (Homo sapiens, UniProt O96028).
T2 construct: SET domain, residues 934-1241, N-terminal His tag, E. coli
T2 sequence (O96028 934-1241): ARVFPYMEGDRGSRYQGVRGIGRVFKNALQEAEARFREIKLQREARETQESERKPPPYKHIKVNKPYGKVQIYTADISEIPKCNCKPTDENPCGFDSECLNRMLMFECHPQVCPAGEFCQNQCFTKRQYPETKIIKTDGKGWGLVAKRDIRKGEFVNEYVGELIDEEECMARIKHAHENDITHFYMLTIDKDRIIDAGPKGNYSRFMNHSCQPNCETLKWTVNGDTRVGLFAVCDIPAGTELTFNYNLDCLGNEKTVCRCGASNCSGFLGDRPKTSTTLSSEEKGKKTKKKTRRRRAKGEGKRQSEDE
Description: biochemical. Further details: Surface plasmon resonance binding to NSD2 SET domain. The note with it: binder. As to the method:
To support an on-target mechanism of action for the five inhibitors, surface plasmon resonance (SPR) was used to determine whether each inhibitor interacts with the catalytic SET domain of NSD2. […] Chaetocin bound the SET domain with an apparent dissociation constant of 20 nM. Additionally, the data indicated super-stoichiometric binding, which might be due to a binding ratio higher than 1:1 that is consistent with chaetocin’s two disulfide moieties forming adducts with the NSD2 protein, or compound aggregation (data not shown) ([56]).

A further assay deals with T3, SET7/9 (Homo sapiens, UniProt Q8WTS6).
T3 construct: gene SETD7
T3 sequence (Q8WTS6 1-366): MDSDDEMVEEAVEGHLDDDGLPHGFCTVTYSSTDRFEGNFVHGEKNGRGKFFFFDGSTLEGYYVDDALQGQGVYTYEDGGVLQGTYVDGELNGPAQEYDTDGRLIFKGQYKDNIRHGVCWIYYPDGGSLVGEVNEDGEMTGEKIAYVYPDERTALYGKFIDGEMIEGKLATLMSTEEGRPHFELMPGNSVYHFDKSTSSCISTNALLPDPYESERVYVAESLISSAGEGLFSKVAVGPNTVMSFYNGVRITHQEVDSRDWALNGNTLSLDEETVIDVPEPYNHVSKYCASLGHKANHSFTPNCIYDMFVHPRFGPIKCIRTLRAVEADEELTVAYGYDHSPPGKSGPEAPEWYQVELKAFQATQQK
Description: biochemical.

The target of another assay is PRDM9 (Homo sapiens, UniProt Q9NQV7). The conditions noted are these: read-out: DA3003-1 IC50; inhibitor.
For assay [2], the target named is T2, NSD2 SET domain. The assay can be described thus: SPR Biacore 8K, single-cycle kinetics, […] model. Type of assay: binding.
The next assay concerns the target T4, PRMT8 (Homo sapiens, UniProt Q9NR22).
T4 construct: residues 61-394, N- and C-terminal His tags, E. coli
The assay can be described thus: HotSpot [3H]SAM filter-binding methyltransferase assay. Type of assay: biochemical.

Another assay has as its target T5, DOT1L (Homo sapiens, UniProt Q8TEK3).
T5 construct: residues 1-416, N-terminal GST fusion, E. coli
Described as above. Type of assay: biochemical.

The next assay concerns the target MLL2 Complex (Homo sapiens, UniProt O14686). Described as above. Details: gene KMT2D; complex assembled as MLL1; MLL2 here is KMT2D (NM_003482), His tag, E. coli; with WD repeat-containing protein 5; Set1/Ash2 histone methyltransferase complex subunit ASH2; Protein dpy-30 homolog. It counts as biochemical.
The target of a further assay is PRMT3 (Homo sapiens, UniProt O60678). Described as above. Type of assay: biochemical. Further details: residues 2-531, N-terminal His tag, E. coli.
A further assay has as its target T6, EZH1 Complex (Homo sapiens, UniProt Q92800).
T6 construct: five-member complex, Flag-EED, other subunits His-tagged, insect cells; with Zinc finger protein AEBP2; Polycomb protein EED; Polycomb protein SUZ12
The assay is described as above. It counts as biochemical.

The mark [3] stands for this setting: read-out: DA3003-1 IC50, inhibitor.
Where [4] appears, read: histone H4, […] SAM, pH […] MgCl2, […] DTT, […] °C, single experiment.
Setting [5] is: nucleosomes, […] SAM, pH […] MgCl2, […] DTT, […] °C, single experiment.

SMILES strings stand for the structures. Read-outs that look alike come from different tables or passages of the source.

Sequence of PRMT3 (O60678 2-531): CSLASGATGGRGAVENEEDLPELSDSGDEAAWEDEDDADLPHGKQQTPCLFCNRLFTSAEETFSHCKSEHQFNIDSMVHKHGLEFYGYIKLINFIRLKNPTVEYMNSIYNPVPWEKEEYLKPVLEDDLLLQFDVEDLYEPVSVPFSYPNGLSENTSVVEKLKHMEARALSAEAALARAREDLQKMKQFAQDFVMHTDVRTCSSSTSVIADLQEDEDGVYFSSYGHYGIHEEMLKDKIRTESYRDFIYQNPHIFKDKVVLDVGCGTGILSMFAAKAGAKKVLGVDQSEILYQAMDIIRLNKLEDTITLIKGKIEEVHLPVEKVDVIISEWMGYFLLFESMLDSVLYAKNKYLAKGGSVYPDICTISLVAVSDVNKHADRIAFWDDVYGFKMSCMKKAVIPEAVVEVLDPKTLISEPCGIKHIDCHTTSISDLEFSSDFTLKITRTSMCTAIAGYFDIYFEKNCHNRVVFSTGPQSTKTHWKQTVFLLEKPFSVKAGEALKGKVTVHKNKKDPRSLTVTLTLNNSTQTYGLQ
T4 sequence (Q9NR22 61-394): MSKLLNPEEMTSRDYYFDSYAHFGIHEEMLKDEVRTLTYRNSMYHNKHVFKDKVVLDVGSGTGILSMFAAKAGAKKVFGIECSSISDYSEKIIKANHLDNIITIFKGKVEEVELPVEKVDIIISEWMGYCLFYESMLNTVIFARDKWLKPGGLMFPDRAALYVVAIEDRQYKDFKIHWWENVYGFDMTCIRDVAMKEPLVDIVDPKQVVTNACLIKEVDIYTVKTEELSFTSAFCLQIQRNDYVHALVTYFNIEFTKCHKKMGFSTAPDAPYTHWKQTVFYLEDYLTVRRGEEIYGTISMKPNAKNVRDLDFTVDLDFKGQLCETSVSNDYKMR
T5 sequence (Q8TEK3 1-416): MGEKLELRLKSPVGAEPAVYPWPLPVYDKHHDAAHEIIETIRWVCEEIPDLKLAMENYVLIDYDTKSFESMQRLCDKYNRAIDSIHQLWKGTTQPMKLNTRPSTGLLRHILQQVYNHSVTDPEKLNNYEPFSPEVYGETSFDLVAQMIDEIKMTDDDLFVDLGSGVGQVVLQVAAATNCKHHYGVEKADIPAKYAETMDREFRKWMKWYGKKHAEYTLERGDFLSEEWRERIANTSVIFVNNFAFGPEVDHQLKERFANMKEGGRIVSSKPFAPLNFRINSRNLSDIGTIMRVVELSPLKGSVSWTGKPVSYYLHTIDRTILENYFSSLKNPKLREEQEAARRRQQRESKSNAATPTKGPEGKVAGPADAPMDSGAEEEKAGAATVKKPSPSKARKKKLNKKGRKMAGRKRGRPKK
T6 sequence (Q92800 2-747): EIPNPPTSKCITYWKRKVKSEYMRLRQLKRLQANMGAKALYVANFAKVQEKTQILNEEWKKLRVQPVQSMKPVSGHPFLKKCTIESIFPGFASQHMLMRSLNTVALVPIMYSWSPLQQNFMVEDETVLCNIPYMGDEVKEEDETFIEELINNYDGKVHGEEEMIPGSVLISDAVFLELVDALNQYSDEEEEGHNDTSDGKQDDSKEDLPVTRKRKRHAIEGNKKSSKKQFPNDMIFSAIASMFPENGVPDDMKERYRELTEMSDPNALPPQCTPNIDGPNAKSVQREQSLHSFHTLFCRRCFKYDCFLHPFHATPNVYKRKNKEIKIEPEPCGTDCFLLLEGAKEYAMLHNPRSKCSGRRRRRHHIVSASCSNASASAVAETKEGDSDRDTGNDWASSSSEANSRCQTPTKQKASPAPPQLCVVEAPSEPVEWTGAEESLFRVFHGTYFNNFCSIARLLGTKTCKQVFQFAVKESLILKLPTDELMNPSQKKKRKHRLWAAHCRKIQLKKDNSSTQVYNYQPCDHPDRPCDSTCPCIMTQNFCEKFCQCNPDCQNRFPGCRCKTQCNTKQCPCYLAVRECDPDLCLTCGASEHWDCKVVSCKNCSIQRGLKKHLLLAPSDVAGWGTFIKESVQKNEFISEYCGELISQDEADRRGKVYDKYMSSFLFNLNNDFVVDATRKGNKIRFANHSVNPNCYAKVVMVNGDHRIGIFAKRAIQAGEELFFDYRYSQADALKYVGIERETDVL
T6 sequence (O75530 2-441 partner): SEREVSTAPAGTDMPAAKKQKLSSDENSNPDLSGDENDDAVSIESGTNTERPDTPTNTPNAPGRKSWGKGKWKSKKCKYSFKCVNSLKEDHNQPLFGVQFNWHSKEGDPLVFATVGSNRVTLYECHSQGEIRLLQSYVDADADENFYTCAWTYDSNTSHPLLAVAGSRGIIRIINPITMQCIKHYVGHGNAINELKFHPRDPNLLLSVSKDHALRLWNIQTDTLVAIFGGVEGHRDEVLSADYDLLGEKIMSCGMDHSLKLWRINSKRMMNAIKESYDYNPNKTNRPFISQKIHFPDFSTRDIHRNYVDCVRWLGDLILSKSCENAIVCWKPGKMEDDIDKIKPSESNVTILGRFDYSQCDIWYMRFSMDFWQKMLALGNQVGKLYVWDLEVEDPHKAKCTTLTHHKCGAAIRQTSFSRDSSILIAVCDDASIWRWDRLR
T6 sequence (Q15022 2-739 partner): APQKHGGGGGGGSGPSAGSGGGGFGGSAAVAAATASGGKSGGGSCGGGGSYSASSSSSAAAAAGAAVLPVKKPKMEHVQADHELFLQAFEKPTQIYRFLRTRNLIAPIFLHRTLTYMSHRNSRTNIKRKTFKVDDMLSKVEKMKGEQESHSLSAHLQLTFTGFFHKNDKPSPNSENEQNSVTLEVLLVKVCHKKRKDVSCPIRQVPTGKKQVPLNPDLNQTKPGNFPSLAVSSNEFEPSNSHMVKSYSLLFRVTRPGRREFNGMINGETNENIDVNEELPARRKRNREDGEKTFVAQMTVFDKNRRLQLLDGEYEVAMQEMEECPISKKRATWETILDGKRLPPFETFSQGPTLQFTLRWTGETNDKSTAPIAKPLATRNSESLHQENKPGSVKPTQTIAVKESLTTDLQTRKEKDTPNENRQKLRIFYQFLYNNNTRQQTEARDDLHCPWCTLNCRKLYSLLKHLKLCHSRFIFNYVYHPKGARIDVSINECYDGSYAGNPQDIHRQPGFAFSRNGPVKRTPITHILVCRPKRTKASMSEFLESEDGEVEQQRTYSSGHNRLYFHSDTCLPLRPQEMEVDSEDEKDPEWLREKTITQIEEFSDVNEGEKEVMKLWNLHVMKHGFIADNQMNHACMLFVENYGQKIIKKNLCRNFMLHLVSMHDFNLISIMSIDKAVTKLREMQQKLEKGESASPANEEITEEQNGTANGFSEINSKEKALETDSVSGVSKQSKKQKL
T6 sequence (Q09028 2-425 partner): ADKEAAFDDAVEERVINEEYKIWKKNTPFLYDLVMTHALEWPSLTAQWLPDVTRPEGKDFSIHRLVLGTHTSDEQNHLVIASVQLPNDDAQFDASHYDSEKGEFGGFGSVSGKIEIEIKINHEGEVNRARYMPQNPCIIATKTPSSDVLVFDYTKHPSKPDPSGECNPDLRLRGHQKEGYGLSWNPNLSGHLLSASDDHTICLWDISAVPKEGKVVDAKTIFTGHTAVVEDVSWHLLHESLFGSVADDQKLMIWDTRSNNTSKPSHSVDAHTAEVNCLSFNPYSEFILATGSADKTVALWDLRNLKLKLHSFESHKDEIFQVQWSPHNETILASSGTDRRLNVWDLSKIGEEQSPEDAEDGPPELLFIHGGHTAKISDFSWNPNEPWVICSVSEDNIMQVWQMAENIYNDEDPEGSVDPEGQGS
T6 sequence (Q6ZN18 2-517 partner): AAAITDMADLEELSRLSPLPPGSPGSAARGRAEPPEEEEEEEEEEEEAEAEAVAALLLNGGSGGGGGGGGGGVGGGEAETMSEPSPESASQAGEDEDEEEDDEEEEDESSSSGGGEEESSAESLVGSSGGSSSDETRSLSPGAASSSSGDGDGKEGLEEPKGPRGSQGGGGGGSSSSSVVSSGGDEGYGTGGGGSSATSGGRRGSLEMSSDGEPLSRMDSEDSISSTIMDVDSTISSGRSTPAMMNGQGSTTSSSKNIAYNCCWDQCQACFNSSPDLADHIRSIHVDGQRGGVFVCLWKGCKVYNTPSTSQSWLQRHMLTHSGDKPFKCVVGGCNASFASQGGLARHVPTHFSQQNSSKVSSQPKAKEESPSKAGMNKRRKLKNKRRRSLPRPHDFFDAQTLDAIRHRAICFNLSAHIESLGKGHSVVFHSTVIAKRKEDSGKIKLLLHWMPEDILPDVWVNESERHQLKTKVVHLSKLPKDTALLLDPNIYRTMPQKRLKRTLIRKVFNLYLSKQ

What is called IC50 is the concentration at which inhibition is half-maximal. One may read the Kd as the equilibrium constant for the complex coming apart. In the case of `O=C1C(Cl)=C(NCCN2CCOCC2)C(=O)c2ncccc21` [DA3003-1], the IC50 at DNMT3b/3L (setting [3]) stood at 0.72 µM; at SMYD1 (setting [3]) it was 1 µM; on SET7/9 (setting [3]), 1.4 µM; at PRDM9, 0.37 µM. On NSD2 SET domain [1], binding was characterised by a dissociation constant (Kd) of 0.37 µM.
As a reminder, the koff is a measure of how fast the partners let go of each other. Read a low koff as slow dissociation. By kon is commonly meant a measure of how fast the partners come together. Low readings indicate slow association, high ones fast association. `CC1(C)CCC(CN2CCN(c3ccc(C(=O)NS(=O)(=O)c4ccc(NCC5CCOCC5)c([N+](=O)[O-])c4)c(Oc4cnc5[nH]ccc5c4)c3)CC2)=C(c2ccc(Cl)cc2)C1` [ABT-199]: binding on NSD2 SET domain [2] was characterised by a dissociation constant (Kd) of 8.3 µM. In addition, the IC50 at PRMT8 was found to be 34 µM; on DOT1L, 2 µM; on MLL2 Complex, 4.6 µM; on PRMT3 it was 36 µM; on EZH1 Complex it was 66 µM. Also, the “koff” value on NSD2 SET domain [1] turned out to be 0.0364 s⁻¹. Also, on NSD2 SET domain [1], the “kon” value stood at 4390 M⁻¹ s⁻¹.
`COc1cccc(-n2nc(C(=O)O)cc2-c2ccc(C3CCCCC3)c(Cl)c2)c1` [TC LPA5 4] gave a Kd on NSD2 SET domain [2] (immobilized SET domain, pH […] °C, […] MgCl2, […] TCEP, […] DMSO) of 8.4 µM. Besides, the IC50 on DNMT3b/3L was found to be 30 µM; on PRMT8 (setting [4]) it was 71 µM; at SMYD1, 21 µM; at DOT1L (setting [5]), 8.2 µM; on MLL2 Complex (setting [5]), 18 µM; at PRMT3 (setting [4]), 5.7 µM. The IC50 against SET7/9 is 52 µM; on EZH1 Complex (core histone, […] SAM, pH […] EDTA, […] DTT, […] °C, single experiment), 40 µM.
